What was measured:
[1] = system: strips of canine antrum circular muscles; experiment: Smooth muscle in vitro model of gastric propulsion: antral circular muscle strips, acetylcholine-induced contraction; type: cell-based; settings: 10 μM test agent; ACh 1 μM; n=4-8 strips; organ bath, Krebs solution; FIG. 1
Protocol: Smooth Muscle in vitro Model of Gastric Propulsion
Agents which stimulate antral smooth muscle activity would be expected to enhance the rate of gastric emptying by propulsion of contents in the aboral direction. By contrast, fundic relaxation could lead to delayed emptying of the stomach as the upper stomach would serve as a reservoir for gastric contents.
The effects of test agents were evaluated on strips of canine antrum circular muscles (n=4-8 strips) suspended in organ baths bathed with Krebs solution. Following establishment of baseline tension, acetylcholine (“ACh”; 1 μM), indomethacin (10 μM), or 8-acetyl-3-(4-fluoro-phenyl)-2-(4-methanesulfonyl-phenyl)-imidazo[1,2-a]pyridine (“8-Acetyl- . . . ”; 10 μM) were applied and tension changes monitored and recorded on a polygraph.

[2] = system: strips of canine fundic circular muscle; experiment: Smooth muscle in vitro model: fundic circular muscle strips, relaxation/tension change; type: cell-based; settings: 10 μM; n=6-8 strips; FIG. 2
Rats = experiment: Rat model of post operative ileus (methylene blue meal transit); type: in vivo; settings: 3 mg/kg intravenous infusion; four hours post-gavage; eight rats; vehicle 49.3±1.3 cm; p<0.05
Protocol: Activity In Vivo: Rat Model of Post Operative Ileus
The selective COX-2 inhibitor 2-(4-ethoxy-phenyl)-3-(4-methanesulfonyl-phenyl)-pyrazolo[1,5-b]pyridazine was evaluated in a rat model of post-operative ileus. The methodology represents a modification of the procedure described by McGill et al, Gastroenterology 116: A1040 (1999).
Rats (fourteen) received 0.5 cc of skimmed milk with methylene blue by gavage. Either vehicle (six rats) or 2-(4-ethoxy-phenyl)-3-(4-methanesulfonyl-phenyl)-pyrazolo[1,5-b]pyridazine (eight rats) was then administered by intravenous infusion. Rats were sacrificed four hours post-gavage and the distance the methylene blue meal traversed the intestine measured. The pylorus was set at 0 cm. With vehicle treatment, the meal traversed 49.3±1.3 cm while with 2-(4-ethoxy-phenyl)-3-(4-methanesulfonyl-phenyl)-pyrazolo[1,5-b]pyridazine (3 mg/kg), the meal traversed 67.8±1.1 cm (p<0.05).

Beagle dogs = experiment: Dog model of gastric emptying (solid phase, gamma camera); type: in vivo; settings: po for three days, measured on fourth day after am dosing; cisapride 0.14 mg/kg TID, celecoxib 2.8 mg/kg BID, 8-acetyl compound 1.2 mg/kg BID; FIG. 3
Protocol: Activity In Vivo: Dog Model of Gastric Emptying
Beagle dogs were treated for three days with test agents (po administration): placebo BID; cisapride 0.14 mg/kg TID; celecoxib 2.8 mg/kg BID; or 8-acetyl-3-(4-fluoro-phenyl)-2-(4-methanesulfonyl-phenyl)-imidazo[1,2-a]pyridine 1.2 mg/kg BID. Solid phase gastric emptying was measured on the fourth day following am dosing. The same three animals were used for evaluation of each agent, thus reducing any interanimal variations.
Isotope-labeled solid food was fed to the dogs for their morning meal and animals were then placed under a gamma camera and scans performed over the 24 to 36 hours.

dogs = experiment: Dog model of lower esophageal sphincter pressure (LESP); type: in vivo; settings: 3 days treatment, day 4 am dose; cisapride 0.14 mg/kg TID, celecoxib 1.2 mg/kg BID; FIG. 4
Protocol: Activity In Vivo: Dog Model of Lower Esophageal Sphincter Pressure (LESP) Six adult dogs were instrumented with 14 French esophagostomy tubes. Animals were treated for 3 days with placebo (BID), cisapride (0.14 mg/kg TID) or celecoxib (1.2 mg/kg BID). On day 4 dogs received their am dose of test agent and water perfused manometry catheters were inserted through the esophagostomy tubes. Lower esophageal sphincter pressures (LESPs) were then monitored.

| Structure (SMILES) | sensitisation of antral circular muscle to acetylcholine-induced contractions [1] | relaxation / change in tension of fundic circular muscle [2] | distance the methylene blue meal traversed the intestine (pylorus = 0 cm) (Rats) | rate of solid phase gastric emptying (Beagle dogs) | lower esophageal sphincter pressure (LESP) compared to placebo (dogs) |
| --- | --- | --- | --- | --- | --- |
| COc1ccc2c(c1)c(CC(=O)O)c(C)n2C(=O)c1ccc(Cl)cc1 [indomethacin] | enhanced acetylcholine-induced contractions | near complete relaxation | – | – | – |
| CCOc1ccc(-c2nn3ncccc3c2-c2ccc(S(C)(=O)=O)cc2)cc1 [2-(4-ethoxy-phenyl)-3-(4-methanesulfonyl-phenyl)-pyrazolo[1,5-b]pyridazine] | – | – | 67.8±1.1 cm | – | – |
| CC(=O)c1cccn2c(-c3ccc(F)cc3)c(-c3ccc(S(C)(=O)=O)cc3)nc12 [8-acetyl-3-(4-fluoro-phenyl)-2-(4-methanesulfonyl-phenyl)-imidazo[1,2-a]pyridine] | – | only small changes in tension | – | increased the rate of gastric emptying | – |
| COc1cc(N)c(Cl)cc1C(=O)NC1CCN(CCCOc2ccc(F)cc2)CC1OC (stereo not shown) [cisapride] | – | – | – | increased the rate of gastric emptying | increased LESP |
